Reference: ChEMBL document CHEMBL3991601, “The target landscape of clinical kinase drugs” (Science, 2017)
Active and inactive are the calls of the source.

What was measured:
[1] = target: Non-receptor tyrosine-protein kinase TYK2 (Homo sapiens, UniProt P29597)
[2] = target: T1, Interleukin-1 receptor-associated kinase 3 (Homo sapiens, UniProt Q9Y616)
T1 sequence (Q9Y616 whole entry): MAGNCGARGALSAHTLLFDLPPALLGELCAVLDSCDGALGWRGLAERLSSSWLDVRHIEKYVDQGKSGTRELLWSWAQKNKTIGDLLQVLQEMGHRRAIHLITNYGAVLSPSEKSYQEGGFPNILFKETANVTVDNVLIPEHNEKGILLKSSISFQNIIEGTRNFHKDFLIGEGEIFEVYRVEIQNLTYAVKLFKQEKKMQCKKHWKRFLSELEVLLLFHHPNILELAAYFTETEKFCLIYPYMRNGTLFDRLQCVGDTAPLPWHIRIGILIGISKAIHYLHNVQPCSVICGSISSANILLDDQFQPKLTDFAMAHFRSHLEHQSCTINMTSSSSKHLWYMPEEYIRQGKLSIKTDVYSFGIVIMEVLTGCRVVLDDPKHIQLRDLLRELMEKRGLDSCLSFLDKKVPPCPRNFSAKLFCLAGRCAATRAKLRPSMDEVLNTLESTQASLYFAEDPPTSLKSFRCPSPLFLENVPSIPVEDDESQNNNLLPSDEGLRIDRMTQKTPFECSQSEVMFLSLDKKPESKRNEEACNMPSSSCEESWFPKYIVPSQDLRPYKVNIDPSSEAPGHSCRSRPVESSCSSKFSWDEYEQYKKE

[3] = target: T2, NUAK family SNF1-like kinase 2 (Homo sapiens, UniProt Q9H093)
T2 sequence (Q9H093 whole entry): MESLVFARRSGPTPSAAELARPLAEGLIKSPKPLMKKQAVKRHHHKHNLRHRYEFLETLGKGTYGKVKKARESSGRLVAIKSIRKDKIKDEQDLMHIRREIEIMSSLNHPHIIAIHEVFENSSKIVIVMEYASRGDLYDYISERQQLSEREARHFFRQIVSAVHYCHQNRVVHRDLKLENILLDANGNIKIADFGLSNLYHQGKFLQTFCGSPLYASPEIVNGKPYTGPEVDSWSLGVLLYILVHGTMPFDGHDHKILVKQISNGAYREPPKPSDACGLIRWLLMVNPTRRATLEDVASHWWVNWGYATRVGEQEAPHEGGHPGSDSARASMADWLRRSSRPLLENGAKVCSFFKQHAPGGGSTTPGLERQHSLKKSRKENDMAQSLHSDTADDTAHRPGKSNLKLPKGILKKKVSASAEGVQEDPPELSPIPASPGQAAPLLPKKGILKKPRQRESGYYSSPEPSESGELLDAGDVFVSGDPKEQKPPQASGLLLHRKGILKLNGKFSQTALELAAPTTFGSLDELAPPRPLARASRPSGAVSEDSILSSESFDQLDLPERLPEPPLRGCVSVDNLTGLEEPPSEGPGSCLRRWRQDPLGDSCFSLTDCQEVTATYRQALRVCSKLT

[4] = target: T3, Tyrosine-protein kinase Tec (Homo sapiens, UniProt P42680)
T3 sequence (P42680 whole entry): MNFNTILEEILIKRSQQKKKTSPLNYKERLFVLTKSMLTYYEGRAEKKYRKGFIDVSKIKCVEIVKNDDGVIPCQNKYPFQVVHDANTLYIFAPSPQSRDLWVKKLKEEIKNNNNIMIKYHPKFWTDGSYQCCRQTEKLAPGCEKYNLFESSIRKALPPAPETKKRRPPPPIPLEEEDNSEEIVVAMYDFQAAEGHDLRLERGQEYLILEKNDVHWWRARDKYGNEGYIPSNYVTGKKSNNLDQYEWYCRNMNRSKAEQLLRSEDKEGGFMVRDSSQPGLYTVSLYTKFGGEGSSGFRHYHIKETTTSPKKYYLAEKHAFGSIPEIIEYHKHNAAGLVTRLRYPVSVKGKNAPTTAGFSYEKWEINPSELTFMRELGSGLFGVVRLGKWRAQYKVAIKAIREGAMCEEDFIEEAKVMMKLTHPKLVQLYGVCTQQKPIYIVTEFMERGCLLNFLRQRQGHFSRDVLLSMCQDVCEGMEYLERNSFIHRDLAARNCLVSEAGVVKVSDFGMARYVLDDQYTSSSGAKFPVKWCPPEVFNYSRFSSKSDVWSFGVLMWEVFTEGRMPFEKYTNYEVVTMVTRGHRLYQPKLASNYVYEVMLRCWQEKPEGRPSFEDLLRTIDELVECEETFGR

[5] = target: Ribosomal protein S6 kinase beta-1 (Homo sapiens, UniProt P23443)
Ribosomal protein S6 kinase beta-1, sequence (P23443 whole entry): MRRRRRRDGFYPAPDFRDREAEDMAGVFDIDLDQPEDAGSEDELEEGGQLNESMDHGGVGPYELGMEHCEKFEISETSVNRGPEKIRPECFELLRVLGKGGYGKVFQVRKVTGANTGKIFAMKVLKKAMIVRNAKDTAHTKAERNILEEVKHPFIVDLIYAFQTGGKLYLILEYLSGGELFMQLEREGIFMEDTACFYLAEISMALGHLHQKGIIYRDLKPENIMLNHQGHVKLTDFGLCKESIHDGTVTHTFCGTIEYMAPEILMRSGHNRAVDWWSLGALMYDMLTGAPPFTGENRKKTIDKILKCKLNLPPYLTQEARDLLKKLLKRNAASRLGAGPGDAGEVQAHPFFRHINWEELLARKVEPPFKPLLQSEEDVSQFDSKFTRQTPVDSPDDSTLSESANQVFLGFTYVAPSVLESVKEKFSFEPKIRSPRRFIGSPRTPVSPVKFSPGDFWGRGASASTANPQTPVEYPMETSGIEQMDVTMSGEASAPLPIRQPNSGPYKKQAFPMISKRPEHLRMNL

[6] = target: T4, ATP-dependent 6-phosphofructokinase, platelet type (Homo sapiens, UniProt Q01813)
T4 sequence (Q01813 whole entry): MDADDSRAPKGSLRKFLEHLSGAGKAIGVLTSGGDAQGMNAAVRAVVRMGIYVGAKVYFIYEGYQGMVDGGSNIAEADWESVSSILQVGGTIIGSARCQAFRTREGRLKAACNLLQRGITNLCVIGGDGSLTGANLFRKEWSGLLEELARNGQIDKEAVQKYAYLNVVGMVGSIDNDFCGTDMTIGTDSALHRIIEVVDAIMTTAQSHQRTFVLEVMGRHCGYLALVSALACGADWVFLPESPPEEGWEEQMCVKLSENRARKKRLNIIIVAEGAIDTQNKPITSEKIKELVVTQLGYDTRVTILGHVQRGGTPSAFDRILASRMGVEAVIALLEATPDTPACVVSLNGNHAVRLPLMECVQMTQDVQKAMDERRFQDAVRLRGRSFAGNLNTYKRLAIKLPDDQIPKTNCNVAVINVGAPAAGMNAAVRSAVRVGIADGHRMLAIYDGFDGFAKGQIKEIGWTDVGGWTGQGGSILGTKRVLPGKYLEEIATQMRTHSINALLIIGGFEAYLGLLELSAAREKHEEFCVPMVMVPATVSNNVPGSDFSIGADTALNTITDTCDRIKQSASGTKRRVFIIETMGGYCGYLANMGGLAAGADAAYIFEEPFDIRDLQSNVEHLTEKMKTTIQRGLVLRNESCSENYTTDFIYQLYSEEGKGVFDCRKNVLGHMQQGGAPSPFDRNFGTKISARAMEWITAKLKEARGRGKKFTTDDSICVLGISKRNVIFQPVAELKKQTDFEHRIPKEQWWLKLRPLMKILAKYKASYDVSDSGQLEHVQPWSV

Measured: Kd
Also: in the data inactive means no Kd found up to 30 µM.

Non-receptor tyrosine-protein kinase TYK2, sequence (P29597 whole entry): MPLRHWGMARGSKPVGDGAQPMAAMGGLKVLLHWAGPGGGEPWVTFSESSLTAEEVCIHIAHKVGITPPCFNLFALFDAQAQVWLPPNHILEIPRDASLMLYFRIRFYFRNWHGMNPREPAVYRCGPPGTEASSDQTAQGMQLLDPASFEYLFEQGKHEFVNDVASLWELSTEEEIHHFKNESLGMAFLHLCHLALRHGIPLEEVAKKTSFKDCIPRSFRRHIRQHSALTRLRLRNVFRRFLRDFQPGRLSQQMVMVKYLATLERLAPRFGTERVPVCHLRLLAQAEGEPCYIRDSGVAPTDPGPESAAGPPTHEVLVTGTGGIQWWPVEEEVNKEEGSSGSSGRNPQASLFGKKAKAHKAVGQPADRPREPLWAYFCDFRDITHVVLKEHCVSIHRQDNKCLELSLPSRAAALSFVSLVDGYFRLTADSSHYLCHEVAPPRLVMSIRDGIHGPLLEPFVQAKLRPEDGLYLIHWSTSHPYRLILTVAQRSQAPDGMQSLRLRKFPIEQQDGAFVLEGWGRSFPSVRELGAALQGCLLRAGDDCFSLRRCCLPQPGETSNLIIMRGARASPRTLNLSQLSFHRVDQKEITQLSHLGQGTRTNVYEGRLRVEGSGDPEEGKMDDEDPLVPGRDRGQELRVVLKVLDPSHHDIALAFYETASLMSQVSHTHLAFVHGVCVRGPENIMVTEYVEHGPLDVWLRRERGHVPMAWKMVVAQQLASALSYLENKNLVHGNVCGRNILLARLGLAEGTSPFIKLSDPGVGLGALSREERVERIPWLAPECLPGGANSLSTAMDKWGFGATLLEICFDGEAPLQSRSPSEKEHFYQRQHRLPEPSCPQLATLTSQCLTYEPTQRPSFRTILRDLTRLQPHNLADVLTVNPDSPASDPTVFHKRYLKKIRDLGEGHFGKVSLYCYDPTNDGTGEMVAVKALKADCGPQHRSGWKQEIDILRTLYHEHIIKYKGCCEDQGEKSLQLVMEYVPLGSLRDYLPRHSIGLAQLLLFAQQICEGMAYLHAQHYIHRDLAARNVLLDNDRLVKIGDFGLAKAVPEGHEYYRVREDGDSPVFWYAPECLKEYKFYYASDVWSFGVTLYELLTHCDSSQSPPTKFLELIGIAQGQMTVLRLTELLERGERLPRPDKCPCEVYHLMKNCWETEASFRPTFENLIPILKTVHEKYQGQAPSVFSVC

CCn1c(C(=O)N(C2CC2)C2CC2)cc2c3c(ncn3C)c(Nc3cc(C)n(C)n3)nc21 [BMS-911543]
inactive: [1] > 30 µM | [2] > 30 µM | [3] > 30 µM | [4] > 30 µM | [5] > 30 µM | [6] > 30 µM

FC(F)(F)c1ccc(/C=C/c2nc(COc3ccc(CCCCn4ccnn4)cc3)co2)cc1 [MUBRITINIB]
inactive: [1] > 30 µM | [2] > 30 µM | [3] > 30 µM | [4] > 30 µM | [5] > 30 µM | [6] > 30 µM
